Tested on: BV-2 cells
Assay: Aβ1-42 clearance assay
Type: cell-based, mouse
Method: AB Clearance: For the amyloid beta (Aβ) clearance assay, 20000 BV-2 cells per well (uncoated 96 well plates) were plated out. After changing cells to treatment medium, drug compounds were administered 1 hour before Aβ stimulation (Bachem 4061966; final concentration in well: 200 ng/ml (dilutions in medium)). Cells treated with vehicle and cells treated with Aβ alone served as controls. After 3 h of Aβ stimulation, cell supernatants were collected for the Aβ measurement and cells were carefully washed twice with PBS and thereafter lysed in 35 μL cell lysis buffer (50 mM Tris-HCl, pH 7.4, 150 mM NaCl, 5 mM EDTA, 1% SDS) supplemented with protease inhibitors. Supernatants and cell lysates were analyzed for human Aβ42 with MSD® V-PLEX Human Aβ42 Peptide (6E10) Kit (K151LBE, Mesoscale Discovery). The immune assay was carried out according to the manual and plates were read on the MESO QuickPlex SQ 120.
Aβ1-42 clearance: For Abeta (Aβ1-42) clearance assay, 20,000 BV-2 cells per well (uncoated 96 well plates) were plated out. After changing cells to treatment medium, HCQ (0.25 μM, 2.5 μM and 25 μM) was applied 1 hour before Aβ1-42 stimulation (Bachem 4061966; final concentration in well: 200 ng/ml (dilutions in medium)). Cells treated with vehicle (0.1% DMSO) and cells treated with Aβ1-42 alone served as controls. After 3 h of Aβ1-42 stimulation, cell supernatants were collected for the Aβ1-42 measurement and cells were carefully washed twice with PBS and thereafter lysed in 35 μL cell lysis buffer (50 mM Tris-HCl, pH 7.4, 150 mM NaCl, 5 mM EDTA, 1% SDS) supplemented with protease inhibitors. Supernatants and cell lysates were analyzed for human Aβ1-42 with MSD® V-PLEX Human Aβ42 Peptide (6E10) Kit (K151LBE, Mesoscale Discovery). The immune assay was carried out according to the manufacturer's manual and plates were read on the MESO QuickPlex SQ 120.
Aβ Clearance: 20,000 BV2 cells per well (uncoated 96-well plates were plated out. After changing cells to treatment medium, drug compounds were administered 1 hour before Aβ stimulation (final concentration in well 200 ng/ml; dilutions in medium). Cells treated with vehicle and cells treated with Aβ alone served as controls. After 3 hours of Aβ stimulation, cell supernatants were collected for the Aβ measurement and cells were carefully washed twice with PBS and thereafter lysed in 35 μl of cell lysis buffer (50 mM tris-HCl, pH 7.4, 150 mM NaCl, 5 mM EDTA, and 1% SDS) supplemented with protease inhibitors. Supernatants and cell lysates were analyzed for human Aβ42 with the MSD V-PLEX Human Aβ42 Peptide (6E10) Kit (K151LBE, Mesoscale Discovery). The immune assay was carried out according to the manual, and plates were read on MESO QuickPlex SQ 120 (Meso Scale Diagnostics, Rockville, MD).
For Aβ clearance assay, 20,000 BV-2 cells per well (uncoated 96 well plates) were plated out. After 24 hours, medium was changed to treatment medium (DMEM, 5% FCS, 2 mM L-glutamine) and cells were maintained in treatment medium for the remaining culture period. After changing cells to treatment medium, the test items were administered 1 hour before Aβ stimulation (Bachem 4061966; final concentration in well: 200 ng/mL (dilutions in medium)). Cells treated with vehicle, cells treated with Aβ alone, as well as wells with Aβ but no cells served as controls. All wells were handled the same way. After 3 h of Aβ stimulation, cell supernatants were collected for the Aβ measurement and cells were carefully washed twice with PBS and thereafter lysed in 35 μl cell lysis buffer (50 mM Tris-HCl, pH 7.4, 150 mM NaCl, 5 mM EDTA, 1% SDS) supplemented with protease inhibitors. Cells were incubated for 15 min at RT on a plate shaker, samples were frozen at −80° C. until further use. The experiment was performed in n=6 technical replicates for all groups. […]

Structure (SMILES)	Aβ1-42 clearance (25 μM)	Aβ1-42 in the supernatant (25 μM)	Aβ1-42 supernatant:lysate ratio (25 μM)	cell viability (25 μM)	effect in Aβ clearance (BV2 cells) (posterior probability of a protective effect, Bayesian dose-response model)
CCN(CCO)CCCC(C)Nc1ccnc2cc(Cl)ccc12 (centres unmarked) [HCQ, hydroxychloroquine]	increased	reduced	lowering	without adverse effects on cell viability	–
C[C@H](CCC(=O)NCCS(=O)(=O)O)[C@H]1CC[C@H]2[C@@H]3[C@@H](O)C[C@@H]4C[C@H](O)CC[C@]4(C)[C@H]3CC[C@]12C [TUDCA, tauroursodeoxycholic acid]	–	–	–	–	strongly protective

— patent publication US20240269128A1, “COMPOUNDS FOR TREATING OR PREVENTING ALZHEIMER'S DISEASE” (THE UNITED STATES OF AMERICA, as represented by the …, priority 2021, published 2024)
